Reference: patent US20250243488A1, “METHODS OF MODULATING PROGRANULIN EXPRESSION USING ANTISENSE OLIGONUCLEOTIDES TARGETING REGULATORY RNAS” (Camp4 Therapeutics Corporation, priority 2022, published 2025)
Oligonucleotides are written 5' to 3', each unit as a sugar letter and its base; * is a phosphorothioate linkage, no mark a phosphodiester; rarer units and linkages stand in square brackets, end groups in braces. Plain capitals give the bases only. e = 2'-O-(2-methoxyethyl) (MOE); l = locked nucleic acid (LNA); [5mC] = 5-methylcytosine; d = 2'-deoxy (DNA)

System: GRN mRNA
Assay: GRN mRNA qPCR in SK-N-AS cells transfected with ASOs
Format: cell-based, human
Conditions: SK-N-AS; for hGRN mRNA FC / 120 nM FC (GRN mRNA): 120 nM
Protocol: The best ASOs based on increased GRN mRNA fold-change were selected for further characterization in dose titration studies. Briefly, human neuroblastoma SK-N-AS cells were transfected with 20 to 160 nM of ASOs CO-3423, CO-3431, CO-3463, and CO-3503. A steric non-targeting control ASO (sNTC) was used as a control. Cells were collected for mRNA analysis after 48 hours and GRN mRNA quantified by qPCR. Housekeeping genes for normalization were GAPDH and PPIA, and mRNA fold change (FC) was normalized to sNTC.
36 additional ASOs were designed with different modifications and base walking around selected ASOs. The effect of increasing doses of these ASOs was assessed in the human neuroblastoma cell line SK-N-AS following transfection. Relative GRN mRNA levels in SK-N-AS cells after treatment was assessed 48-hours post-transfection, and data from exemplary ASOs is shown in FIGS. 5A and 5B.
Additional chemical modifications, including LNA, modifications were made to CO-3423. SK-N-AS cells were transfected with increasing concentrations of the LNA/PS modified ASOs and GRN mRNA quantified by qPCR. ASOs including different LNA modifications of CO-3423 had similar efficacy (i.e, similar increased GRN mRNA expression). GRN mRNA was normalized to the average fold-change of cells treated with two steric non-targeting control ASOs (CO-3772 and CO-1589 (sNTC1)).
The effect of ASO length on GRN gene expression modulation was also investigated. SK-N-AS cells were transfected with increasing concentrations of the longer ASOs and GRN mRNA quantified by qPCR. Increasing the length of CO-3423 increased the potency of the ASO, as shown in Table 4. mRNA was normalized to the average fold change of cells treated with two steric non-targeting control ASOs (CO-3772 and CO-1589 (sNTC1)).
To determine whether variations in the PO/PS internucleotide bond linkages impacted the ability of CO-3423 and CO-3431 to modulate gene expression, several modified ASOs based on these parent ASOs were prepared. SK-N-AS cells were transfected with increasing concentrations of the mixed PO/PS bond ASOs described in Tables 5 and 6, and GRN mRNA quantified by qPCR.
GRN mRNA fold-change after treatment with mixed PO/PS bond versions of CO-3423 is shown in Table 5. mRNA was normalized to the average fold change of cells treated with steric nontargeting controls (CO-3772, CO-1589 (sNTC1), and CO-1929 (sNTC3)).
GRN mRNA fold-change after treatment with mixed PO/PS bond versions of CO-3431 is shown in Table 6. mRNA was normalized as described above.
To further assess the effect of additional modifications on the ability of CO-3423 parent ASO to modulate GRN gene expression, additional LNA tiling and PO bond modifications were incorporated to CO-3423. SK-N-AS cells were transfected with increasing concentrations of the modified ASOs and GRN mRNA quantified by qPCR. CO-3423 was used for comparison. GRN mRNA was normalized to the average fold-change of cells treated with a steric non-targeting control ASO, CO-1589 (sNTC1).
To further assess the effect of modifications on the ability of CO-3463 parent ASO to modulate GRN gene expression, ASOs based on this ASOS incorporating additional LNA modifications were prepared and compared to […]. SK-N-AS cells were transfected with increasing concentrations of the ASOs and GRN mRNA quantified by qPCR. GRN mRNA was normalized to the average fold-change of cells treated with a steric non-targeting control ASO, CO-1589 (sNTC1).
68 additional ASOs were designed to target intergenic enhancers (eRNA). 48 hours post-transfection, the cells were collected for GRN mRNA analysis using qPCR. CO-1589, a steric nontargeting control ASO, was used as a control. GRN mRNA was normalized to cells treated with CO-1589.
The best hits from these ASOs were tested in a dose escalation study. Cells were incubated for 48 hours. Subsequently, the cells were collected for mRNA quantification via RT-qPCR. […]

[1] = Table 9, 48 hours post-transfection, normalized to CO-1589
[2] = Table 11, 48 hours, normalized to CO-1589
[3] = Table 13, normalized to CO-1589
[4] = Table 12, normalized to CO-1589
[5] = Table 4, normalized to CO-3772 and CO-1589 (sNTC1)
[6] = Table 6, normalized to CO-3772, CO-1589 and CO-1929
[7] = Table 3, normalized to CO-3772 and CO-1589 (sNTC1)
[8] = Table 10, 48 hours, normalized to CO-1589

CO-4589: ASO designed to target intergenic enhancers (eRNA) (antisense e[5mC]*eG*e[5mC]*eA*eG*eG*e[5mC]*eT*eA*eG*eG*eA*eG*eT*eA*e[5mC]*e[5mC]*e[5mC]*eA*eT)
hGRN mRNA FC [1]: 1.1 FC

CO-6441: ASO designed to target an intragenic enhancer RNA (eRNA) (eG*eG*e[5mC]*eT*eG*eA*eT*eG*e[5mC]*eA*eG*eG*eG*eT*eT*e[5mC]*eA*eT*eG*e[5mC])
hGRN mRNA FC [2]: 1.4 FC

CO-4636: ASO designed to target intergenic enhancers (eRNA) (antisense eG*eG*e[5mC]*eA*eA*eT*eT*eA*e[5mC]*eA*eT*eA*e[5mC]*eA*eT*eG*eA*eG*eG*eA)
hGRN mRNA FC [1]: 0.9 FC

CO-6421: ASO based on parent ASOs CO-4363 and CO-4364 (eG*eG*eA*e[5mC]*eT*lT*eG*eG*eG*eA*eG*lT*eG*eG*eT*eG*eA*l[5mC]*eT*eG*eA*eA*e[5mC])
30 nM FC (GRN mRNA) [3]: 1.3 FC | 60 nM FC (GRN mRNA) [3]: 2.1 FC | 120 nM FC (GRN mRNA) [3]: 1.7 FC

CO-6387: ASO based on parent ASO CO-3462 (antisense eT*eA*eG*eG*eA*dG*dA*dA*eT*d[5mC]*dG*e[5mC]*dT*dT*dT*eG*eG*eG*eA*eG)
30 nM FC (GRN mRNA) [4]: 1.3 FC | 60 nM FC (GRN mRNA) [4]: 1.0 FC | 120 nM FC (GRN mRNA) [4]: 1.1 FC

CO-6417: ASO based on parent ASOs CO-4363 and CO-4364 (eG*eG*eA*e[5mC]*lT*eT*eG*eG*lG*eA*eG*eT*lG*eG*eT*eG*lA*e[5mC]*eT*eG*eA)
30 nM FC (GRN mRNA) [3]: 1.4 FC | 60 nM FC (GRN mRNA) [3]: 2.3 FC | 120 nM FC (GRN mRNA) [3]: 2.8 FC

CO-6450: ASO designed to target an intragenic enhancer RNA (eRNA) (e[5mC]*eA*eG*eT*eG*eG*e[5mC]*e[5mC]*eT*eT*eG*eT*e[5mC]*e[5mC]*eA*eG*e[5mC]*eT*e[5mC]*eG)
hGRN mRNA FC [2]: 0.9 FC

CO-4633: ASO designed to target intergenic enhancers (eRNA) (antisense eT*e[5mC]*e[5mC]*eT*e[5mC]*eT*eG*e[5mC]*e[5mC]*eT*eG*eA*e[5mC]*eT*eA*eA*eT*eT*e[5mC]*eG)
hGRN mRNA FC [1]: 1.3 FC

CO-6512: ASO based on parent ASO CO-3462 (antisense eT*eA*eGeGeAeGeA*eA*eT*e[5mC]*eG*e[5mC]eT*eT*eT*eG*eG*eG*eA*eG)
30 nM FC (GRN mRNA) [4]: 1.3 FC | 60 nM FC (GRN mRNA) [4]: 1.8 FC | 120 nM FC (GRN mRNA) [4]: 1.3 FC

CO-4362: longer ASO based on CO-3423 (antisense eG*eA*e[5mC]*eT*eT*dG*dG*dG*eA*dG*dT*eG*dG*dT*dG*eA*e[5mC]*eT*eG*eA)
30 nM FC (GRN mRNA) [5]: 1.1 FC | 60 nM FC (GRN mRNA) [5]: 1.1 FC | 120 nM FC (GRN mRNA) [5]: 1.4 FC

CO-4594: ASO designed to target intergenic enhancers (eRNA) (antisense eA*eA*eA*eG*eG*eA*e[5mC]*eG*e[5mC]*e[5mC]*eT*eT*e[5mC]*eT*e[5mC]*eT*e[5mC]*eG*eG*eG)
hGRN mRNA FC [1]: 1.3 FC

CO-4605: ASO designed to target intergenic enhancers (eRNA) (antisense e[5mC]*eG*eG*eG*eA*eG*eA*e[5mC]*eA*eG*eG*eA*eA*eG*eG*e[5mC]*eT*eT*eA*eA)
hGRN mRNA FC [1]: 1.2 FC

CO-4457: mixed PO/PS bond version of CO-3431 (antisense eA*eT*eTeGe[5mC]eAeGeTeGeAe[5mC]eGe[5mC]e[5mC]e[5mC]e[5mC]eGeT*eT*eA)
30 nM FC (GRN mRNA) [6]: 0.2 FC | 60 nM FC (GRN mRNA) [6]: 0.1 FC | 120 nM FC (GRN mRNA) [6]: 0.1 FC

CO-4358: LNA/PS modified ASO based on CO-3423 (antisense eG*eG*eA*l[5mC]*eT*eT*eG*lG*eG*eA*eG*lT*eG*eG*eT*lG*eA*e[5mC]*eT*eG)
30 nM FC (GRN mRNA) [7]: 1.5 FC | 60 nM FC (GRN mRNA) [7]: 1.9 FC | 120 nM FC (GRN mRNA) [7]: 2.0 FC

CO-6426: ASO based on parent ASOs CO-4363 and CO-4364 (eG*eG*eA*e[5mC]*eT*eT*eG*eG*eG*eA*eG*eT*eG*eG*eT*eG*eA*e[5mC]*eT*eG*eA*eA*e[5mC]*e[5mC])
30 nM FC (GRN mRNA) [3]: 0.8 FC | 60 nM FC (GRN mRNA) [3]: 1.5 FC | 120 nM FC (GRN mRNA) [3]: 1.3 FC

CO-4611: ASO designed to target intergenic enhancers (eRNA) (antisense eT*eA*eT*eT*eA*eA*eT*e[5mC]*e[5mC]*eA*e[5mC]*eG*e[5mC]*eT*eG*eT*e[5mC]*e[5mC]*e[5mC]*eA)
hit identification (GRN mRNA dose escalation) (3.75 nM to 120 nM, 48 hours): initial hits | hGRN mRNA FC [1]: 1.4 FC | 3.75 nM FC (GRN mRNA) (Table 10, 3.75 nM, 48 hours, normalized to CO-1589): 1.1 FC | 7.5 nM FC (GRN mRNA) (Table 10, 7.5 nM, 48 hours, normalized to CO-1589): 1.1 FC | 15 nM FC (GRN mRNA) (Table 10, 15 nM, 48 hours, normalized to CO-1589): 1.1 FC | 30 nM FC (GRN mRNA) [8]: 1.1 FC | 60 nM FC (GRN mRNA) [8]: 1.1 FC | 120 nM FC (GRN mRNA) [8]: 1.3 FC

CO-6398: ASO based on parent ASO CO-3462 (antisense eT*eA*eG*eG*lA*eG*eA*eA*eT*l[5mC]*eG*e[5mC]*eT*eT*lT*eG*eG*eG*eA*eG)
30 nM FC (GRN mRNA) [4]: 1.3 FC | 60 nM FC (GRN mRNA) [4]: 1.5 FC | 120 nM FC (GRN mRNA) [4]: 1.8 FC

CO-6403: ASO based on parent ASO CO-3462 (antisense eG*eG*eT*eA*eG*eG*eA*dG*dA*dA*dT*d[5mC]*dG*d[5mC]*dT*dT*dT*eG*eG*eG*eA*eG*e[5mC]*eA)
30 nM FC (GRN mRNA) [4]: 1.6 FC | 60 nM FC (GRN mRNA) [4]: 2.2 FC | 120 nM FC (GRN mRNA) [4]: 2.4 FC

CO-4363: longer ASO based on CO-3423 (antisense eG*eG*eA*e[5mC]*eT*eT*eG*eG*eG*eA*eG*eT*eG*eG*eT*eG*eA*e[5mC]*eT*eG*eA)
30 nM FC (GRN mRNA) [5]: 1.3 FC | 60 nM FC (GRN mRNA) [5]: 2.2 FC | 120 nM FC (GRN mRNA) [5]: 1.8 FC | 30 nM FC (GRN mRNA) [3]: 1.6 FC | 60 nM FC (GRN mRNA) [3]: 1.7 FC | 120 nM FC (GRN mRNA) [3]: 1.7 FC
